The results in this text go back to PubChem BioAssay (NCI).

Test systems include OVCAR-8 ovarian; HCT-116 colon; COLO 205 colon; ACHN renal; CAKI-1 renal; TK-10 renal; HS 578T breast; SK-MEL-28 melanoma; LOX IMVI melanoma; SNB-75 CNS.
Test in all cases: NCI anticancer screen, dose series, 48 h

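How tested: cells in 96-well plates exposed to compound for 48 hours at five concentrations. GI50: concentration for 50% inhibition of growth. TGI marks complete inhibition of growth.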 Where only a bound is given, the exact number is not on record here.

Regarding `COC(=O)C1=C(OC(=O)c2ccc(Cl)cc2)C(C(=O)OC)[C@@]2(O)[C@@H](C(=O)OC)C(c3ccccc3C(F)(F)F)C[C@@H]1[C@@H]2C(=O)OC` (some centres not stated), the GI50 was 2.72 µM in the assay with OVCAR-8 ovarian; 2.92 µM in the assay with HCT-116 colon; 3.31 µM in the assay on COLO 205 colon; 3.19 µM in the assay on ACHN renal; 13.9 µM with CAKI-1 renal; 33 µM in the assay on TK-10 renal. The GI50 with HS 578T breast was 3.96 µM; with SK-MEL-28 melanoma, 6.69 µM. Besides, the TGI in the assay on OVCAR-8 ovarian was 9.87 µM; in the assay with HCT-116 colon it was 11.4 µM; in the assay with COLO 205 colon it was > 100 µM; in the assay with ACHN renal it was > 100 µM; with CAKI-1 renal, 36.1 µM; in the assay on TK-10 renal, 78.8 µM. Also, the TGI in the assay with HS 578T breast was 24.2 µM; with SK-MEL-28 melanoma, > 100 µM.
For `CC[C@H](C)[C@H](NC(=O)c1cnccn1)C(=O)N(C)[C@H](C[C@@H](OC(C)=O)c1nc(C(=O)N[C@@H](Cc2ccccc2)C[C@H](C)C(=O)OC)cs1)C(C)C`, the GI50 with OVCAR-8 ovarian was 1.68 µM; in the assay with LOX IMVI melanoma it was 1.63 µM; in the assay with HCT-116 colon it was 1.19 µM; with COLO 205 colon it was 1.17 µM; in the assay with ACHN renal it was 2.69 µM; in the assay on TK-10 renal, 7.18 µM. Also, the GI50 with HS 578T breast is 0.941 µM; with SK-MEL-28 melanoma, 2.37 µM. Further, the TGI in the assay on OVCAR-8 ovarian was > 33.3 µM; in the assay on LOX IMVI melanoma, > 33.3 µM; in the assay with HCT-116 colon it was > 33.3 µM; in the assay on COLO 205 colon it was 4.1 µM; with ACHN renal, > 33.3 µM; with TK-10 renal, > 33.3 µM. Moreover, the figures for the TGI with HS 578T breast and in the assay on SK-MEL-28 melanoma were 10.6 µM and > 33.3 µM, respectively.
For the compound `CC(=O)c1cccc(N(/C=C/C(=O)C(F)(F)F)CC(=O)c2ccc(Cl)cc2)c1`, the GI50 in the assay with OVCAR-8 ovarian, in the assay with LOX IMVI melanoma, in the assay with HCT-116 colon, in the assay on COLO 205 colon, with ACHN renal and in the assay with CAKI-1 renal was > 100 µM each time. In addition, the GI50 in the assay on TK-10 renal, with HS 578T breast and with SK-MEL-28 melanoma was > 100 µM in each case. The TGI with OVCAR-8 ovarian, in the assay on LOX IMVI melanoma, in the assay with HCT-116 colon, with COLO 205 colon, in the assay on ACHN renal and in the assay on CAKI-1 renal was > 100 µM each time. For the same compound, the TGI with TK-10 renal, in the assay on HS 578T breast and with SK-MEL-28 melanoma was > 100 µM throughout.
`Cc1cc(N(CCNc2ccnc3cc(Cl)ccc23)Cc2ccc3c(c2)OCO3)nc(N2CCN(C)CC2)n1`: the GI50 is 3.18 µM with OVCAR-8 ovarian; 1.79 µM in the assay with LOX IMVI melanoma; 1.41 µM with HCT-116 colon; 1.86 µM with COLO 205 colon; 2.52 µM in the assay with ACHN renal; 1.44 µM in the assay on SNB-75 CNS. Further, the values for the GI50 with TK-10 renal, in the assay with HS 578T breast and in the assay with SK-MEL-28 melanoma were 1.81 µM, 1.87 µM and 1.89 µM, respectively. The TGI in the assay with OVCAR-8 ovarian stood at 11.2 µM; in the assay on LOX IMVI melanoma it was 3.66 µM; in the assay with HCT-116 colon it was 4.7 µM; in the assay with COLO 205 colon, 3.69 µM; in the assay with ACHN renal it was 5.78 µM; with SNB-75 CNS it was 3.04 µM. Besides, the TGI in the assay with TK-10 renal worked out at 3.61 µM; in the assay with HS 578T breast it was 5.2 µM; in the assay on SK-MEL-28 melanoma, 3.53 µM.
On to `C#C[C@]1(O)CC[C@H]2[C@@H]3CC=C4c5nc(Nc6ccccn6)sc5CC[C@]4(C)[C@H]3CC[C@@]21C`, for which the GI50 is 1.77 µM in the assay with OVCAR-8 ovarian; 1.29 µM in the assay with LOX IMVI melanoma; 1.12 µM with HCT-116 colon; 1.81 µM with COLO 205 colon; 1.37 µM with ACHN renal; 1.26 µM with CAKI-1 renal. Also, the GI50 with TK-10 renal was 2.22 µM; in the assay with HS 578T breast it was 0.421 µM; with SK-MEL-28 melanoma, 0.279 µM. For the same compound, the TGI with OVCAR-8 ovarian is 7.89 µM; in the assay with LOX IMVI melanoma, 2.59 µM; in the assay with HCT-116 colon, 2.73 µM; in the assay on COLO 205 colon, 4.05 µM; in the assay on ACHN renal it was 10.2 µM; in the assay with CAKI-1 renal, 3.1 µM. For the same compound, the figures for the TGI with TK-10 renal, in the assay with HS 578T breast and in the assay with SK-MEL-28 melanoma were 5.08 µM, 2.4 µM and 1.01 µM, respectively.
`CON(C)C(=O)C(C)NC(=O)OCc1ccccc1` (configuration not stated): the TGI in the assay on OVCAR-8 ovarian, in the assay with HCT-116 colon, with ACHN renal, with SNB-75 CNS, in the assay on TK-10 renal and in the assay on HS 578T breast was > 100 µM each time. The TGI with SK-MEL-28 melanoma is > 100 µM.
Consider `COc1cc2cc(Oc3ccc(NC(=O)c4cccc(C(F)(F)F)c4)cc3)c(C)nc2cc1OC`, for which the GI50 with OVCAR-8 ovarian is 6.91 µM; in the assay on LOX IMVI melanoma, 4.36 µM; in the assay on HCT-116 colon, 3.22 µM; in the assay with COLO 205 colon, 4.65 µM; with ACHN renal it was 3.6 µM; in the assay on CAKI-1 renal, 2.75 µM. The results for the GI50 in the assay with TK-10 renal, with HS 578T breast and in the assay on SK-MEL-28 melanoma were 5.18 µM, 2.97 µM and 6.61 µM, respectively. The TGI with OVCAR-8 ovarian, in the assay on LOX IMVI melanoma, in the assay with HCT-116 colon, in the assay with COLO 205 colon, in the assay with ACHN renal and in the assay on CAKI-1 renal was > 100 µM throughout. Besides, the TGI was > 100 µM in the assay with TK-10 renal, 58.4 µM in the assay with HS 578T breast and > 100 µM with SK-MEL-28 melanoma.
On to `COc1ccc(OC)c(-c2cc(-c3ccccc3)nn2-c2ccc(S(=O)(=O)NC(C)=O)cc2)c1`, for which the GI50 is 5.99 µM in the assay on OVCAR-8 ovarian, 13.9 µM in the assay on CAKI-1 renal, 12.8 µM with TK-10 renal and 27.4 µM in the assay on HS 578T breast. For the same compound, the TGI in the assay on OVCAR-8 ovarian turned out to be 62.1 µM; with CAKI-1 renal, 33.9 µM; with TK-10 renal it was 33.1 µM; in the assay with HS 578T breast, 80 µM.
In the case of `COc1ccc2nc(-c3ccccc3)cc(Nc3cccc(/C(C)=N\O)c3)c2c1`, the GI50 in the assay on OVCAR-8 ovarian was 3 µM; in the assay with HCT-116 colon it was 2.58 µM; in the assay on COLO 205 colon it was 21.4 µM; in the assay on ACHN renal, 7.29 µM; in the assay with SNB-75 CNS it was 4.49 µM; in the assay on CAKI-1 renal, 3.23 µM. The GI50 was 2.56 µM in the assay on TK-10 renal, 9.05 µM in the assay with HS 578T breast and 57.7 µM in the assay with SK-MEL-28 melanoma. Further, the TGI in the assay on OVCAR-8 ovarian is > 100 µM; with HCT-116 colon it was > 100 µM; in the assay with COLO 205 colon, > 100 µM; with ACHN renal, > 100 µM; in the assay with SNB-75 CNS, > 100 µM; in the assay on CAKI-1 renal, 12.9 µM. The TGI in the assay on TK-10 renal was 9.69 µM; with HS 578T breast, 79.2 µM; in the assay on SK-MEL-28 melanoma, > 100 µM.
